Results as given in patent publication EP4534528A1, “NOVEL SULFANONE DERIVATIVE OR PHARMACEUTICALLY ACCEPTABLE SALT THEREOF, AND USE THEREOF” (Korea Institute of Science and Technology, priority 2022, dated 2023).
Where a name gives a salt, the structure may show the parent alone. Read-outs that look alike come from different tables or passages of the source. Values belong to the compound of their own block, whether it stands above or below them.

Columns and labels:
[1] = tested on: NO (nitric oxide); assay: NO (nitric oxide) inhibitory activity in LPS-treated BV-2 microglial cells; assay type: cell-based, mouse; details: for activity at 10 µM / activity at 0.1 µM / activity at 1 µM: Mus musculus; for activity at 10 µM: read-out: Amount of NO (% of control) 10 µM; for activity at 0.1 µM: read-out: Amount of NO (% of control) 0.1 µM; for activity at 1 µM: read-out: Amount of NO (% of control) 1 µM
[2] = tested on: Nrf2; assay: Nrf2 functional cell-based assay (DiscoveRx); details: U2OS cells, incubated for 6 hours, luminescence; read-out: Nrf2 activation EC50
[3] = in vitro; assay type: in vitro ADME, Human; details: for remaining at 0.5 h, 1 µM: human, pH 6.4, liver microsomes 0.5 mg/mL, 30 minutes at 37°C
[4] = Metabolic stability in liver microsomes; assay type: in vitro ADME; details: mouse, pH 6.4, 30 minutes at 37°C
[5] = Metabolic stability in liver microsomes; assay type: in vitro ADME; details: rat, pH 6.4, 30 minutes at 37°C
Experimental: Then, an NADPH regeneration system solution was added thereto and the mixed solution was incubated at 37°C for 30 minutes. […]

[6] = background statement; cited from earlier work
[7] = tested on: U2OS cells; details: known from the literature; cited from earlier work
[8] = not told; cited from earlier work
[9] = 10 µM compound, BV-2 cells, LPS 1 µg/ml, 24 hours

Compound: COc1cccc(S(=N)(=O)/C=C/c2ncccc2F)c1 (stereo not drawn) [Compound 1-7, (E)-(2-(3-fluoropyridin-2-yl)vinyl)(imino)(3-methoxyphenyl)-λ^6-sulfanone]
- activity at 10 µM ([1]; BV-2, 24 h): 1.48%

- EC50 [2]: 3280 nM
Compound: (E)-(2-chlorophenyl)(imino)(2-(2,4,6-trichloropyrimidin-5-yl)vinyl)-λ^6-sulfanone [Compound 1-14]
- Amount of NO (% of control) 10 µM [1, 9]: < 3.00 % of control

Compound: N=S(=O)(/C=C/c1ncccc1F)c1ccccc1Cl (stereo not drawn) [Compound 1-3, (E)-(2-chlorophenyl)(2-(3-fluoropyridin-2-yl)vinyl)(imino)-λ^6-sulfanone]
- activity at 0.1 µM ([1]; BV-2, 24 h): 90.9%
- activity at 1 µM ([1]; BV-2, 24 h): 51.4%
- activity at 10 µM ([1]; BV-2, 24 h): < 3%

Compound: N=S(=O)(/C=C/c1cccnc1)c1ccccc1Cl (stereo not drawn) [Compound 1-12, (E)-(2-chlorophenyl)(imino)(2-(pyridin-3-yl)vinyl)-λ^6-sulfanone]
- activity at 10 µM [1, 9]: 24.8%

Compound: COC(=O)/C=C/C(=O)OC [DMF, Dimethyl fumarate]
- EC50 [2]: 4330 nM

- amount of drug remaining after incubation with microsomes (in words) ([3]; 30 minutes): remained at a high concentration
- remaining at 0.5 h, 1 µM [3]: 76%
- remaining at 0.5 h, 1 µM [4]: 59%
Compound: COc1ccc(S(=N)(=O)/C=C/c2ccccn2)cc1 (stereo not drawn) [Compound 1-2, (E)-imino(4-methoxyphenyl)(2-(pyridin-2-yl)vinyl)-λ^6-sulfanone]

Compound: COc1ccccc1S(=O)(/C=C/c1ccccc1Cl)=NC#N (stereo not drawn) [Compound 1-57, (E)-N-((2-chlorostyryl)(2-methoxyphenyl)(oxo)-λ^6-sulfanylidene)cyanamide]
- EC50 [2]: 75 nM

Compound: C[Si](C)(C)N=S(=O)(/C=C/c1ccccc1Cl)c1ccncc1F (stereo not drawn) [Compound 1-46, (E)-(2-chlorostyryl)(3-fluoropyridin-4-yl)((trimethylsilyl)imino)-λ^6-sulfanone]
- EC50 [2]: 120 nM

- remaining at 0.5 h, 1 µM [3]: 72%
- remaining at 0.5 h, 1 µM [5]: 23%
- remaining at 0.5 h, 1 µM [4]: 19%
Compound: O=S(=O)(/C=C/c1ncccc1Cl)c1ccccc1F

- remaining at 0.5 h, 1 µM [3]: 66%
- remaining at 0.5 h, 1 µM [4]: 4.5%
Compound: O=S(=O)(/C=C/c1ncccc1Cl)c1ccccc1Cl

Compound: C[S+]([O-])CCCCN=C=S (stereo not drawn) [Sulforaphane, 1-isothiocyanato-4-methylsulfinylbutane]
- time until it disappears when administered to the body [6]: ≤ 1 h
- activity at 0.1 µM ([1]; 0.1 µM compound, BV-2 cells, LPS 1 µg/ml, 24 hours): 107%
- activity at 1 µM ([1]; 1 µM compound, BV-2 cells, LPS 1 µg/ml, 24 hours): 79.9%
- activity at 10 µM [1, 9]: 14.9%
- concentrations at which high toxicity is exhibited [7]: ≥ 5 µM
- blood-brain barrier permeability [8]: very low
